Where two headings read alike, the source gives them in different places.
Experiments:
EGFR del19/T790M/C797S = EGFR del19/T790M/C797S (Homo sapiens, UniProt P00533, C797S/DEL746-750/T790M); test: Biochemical EGFR kinase assay (Lance Ultra TR-FRET), del19/T790M/C797S
Outline: (§1)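 In this biochemical assay, phosphorylation after a one-hour room-temperature reaction was detected with europium-labelled anti-phosphopeptide antibody at 2 nM final concentration.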

EGFR L858R/T790M/C797S = EGFR L858R/T790M/C797S (Homo sapiens, UniProt P00533, C797S/L858R/T790M); test: Biochemical EGFR kinase assay (Lance Ultra TR-FRET), L858R/T790M/C797S
Outline: as §1

EGFR del19/C797S = EGFR del19/C797S (Homo sapiens, UniProt P00533, C797S/DEL746-750); test: Biochemical EGFR kinase assay (Lance Ultra TR-FRET), del19/C797S
Outline: as §1

EGFR L858R/C797S = EGFR L858R/C797S (Homo sapiens, UniProt P00533, C797S/L858R); test: Biochemical EGFR kinase assay (Lance Ultra TR-FRET), L858R/C797S
Description: Biochemical EGFR kinase assays were conducted using Lance Ultra time-resolved fluorescence resonance energy transfer (TR-FRET) technology from Perkin-Elmer. Compounds of the invention were initially diluted to 20 mM in 100% DMSO for storage and made into kinase buffer solution to create a compound concentration ranging from 0.003 μM and 10 μM.
Each kinase reactions were incubated at room temperature for 1 hour and then stopped by the addition of 4 μL of stop solution (10 mM EDTA). The specific Europium-labeled-anti-phosphopeptide antibody (PerkinElmer, AD0069) diluted in LANCE detection buffer was then added to a final concentration of 2 nM. After 60 minutes incubation at room temperature the LANCE signal was measured on an EnVision Multilabel Reader (Perkin-Elmer). Excitation wavelength was set at 320 nm and emission monitored at 615 nm (donor) and 665 nm (acceptor). The IC50 values were determined using GraphPad prism software (GraphPad Software, Inc., San Diego, CA, USA).

EGFR wildtype (WT) = EGFR wildtype (WT) (Homo sapiens, UniProt P00533); test: Biochemical EGFR kinase assay (Lance Ultra TR-FRET), wildtype
Outline: as §1

[1] = Km ATP, read-out: IC50 del19/T790M/C797S (nM) Km ATP
[2] = Km ATP, read-out: IC50 L858R/T790M/C797S (nM) Km ATP
[3] = Km ATP, read-out: IC50 del19/C797S (nM) Km ATP
[4] = Km ATP, read-out: IC50 L858R/C797S (nM) Km ATP
[5] = Km ATP, read-out: IC50 WT (nM) Km ATP
[6] = IC50 del19/T790M/C797S (nM) 100 μM ATP, 100 μM ATP
[7] = IC50 L858R/T790M/C797S (nM) 100 μM ATP, 100 μM ATP
[8] = IC50 del19/C797S (nM) 100 μM ATP, 100 μM ATP
[9] = IC50 L858R/C797S (nM) 100 μM ATP, 100 μM ATP
[10] = IC50 WT (nM) 100 μM ATP, 100 μM ATP

EGFR L858R/T790M/C797S, sequence (P00533 25-1210 T790M/C797S/L858R): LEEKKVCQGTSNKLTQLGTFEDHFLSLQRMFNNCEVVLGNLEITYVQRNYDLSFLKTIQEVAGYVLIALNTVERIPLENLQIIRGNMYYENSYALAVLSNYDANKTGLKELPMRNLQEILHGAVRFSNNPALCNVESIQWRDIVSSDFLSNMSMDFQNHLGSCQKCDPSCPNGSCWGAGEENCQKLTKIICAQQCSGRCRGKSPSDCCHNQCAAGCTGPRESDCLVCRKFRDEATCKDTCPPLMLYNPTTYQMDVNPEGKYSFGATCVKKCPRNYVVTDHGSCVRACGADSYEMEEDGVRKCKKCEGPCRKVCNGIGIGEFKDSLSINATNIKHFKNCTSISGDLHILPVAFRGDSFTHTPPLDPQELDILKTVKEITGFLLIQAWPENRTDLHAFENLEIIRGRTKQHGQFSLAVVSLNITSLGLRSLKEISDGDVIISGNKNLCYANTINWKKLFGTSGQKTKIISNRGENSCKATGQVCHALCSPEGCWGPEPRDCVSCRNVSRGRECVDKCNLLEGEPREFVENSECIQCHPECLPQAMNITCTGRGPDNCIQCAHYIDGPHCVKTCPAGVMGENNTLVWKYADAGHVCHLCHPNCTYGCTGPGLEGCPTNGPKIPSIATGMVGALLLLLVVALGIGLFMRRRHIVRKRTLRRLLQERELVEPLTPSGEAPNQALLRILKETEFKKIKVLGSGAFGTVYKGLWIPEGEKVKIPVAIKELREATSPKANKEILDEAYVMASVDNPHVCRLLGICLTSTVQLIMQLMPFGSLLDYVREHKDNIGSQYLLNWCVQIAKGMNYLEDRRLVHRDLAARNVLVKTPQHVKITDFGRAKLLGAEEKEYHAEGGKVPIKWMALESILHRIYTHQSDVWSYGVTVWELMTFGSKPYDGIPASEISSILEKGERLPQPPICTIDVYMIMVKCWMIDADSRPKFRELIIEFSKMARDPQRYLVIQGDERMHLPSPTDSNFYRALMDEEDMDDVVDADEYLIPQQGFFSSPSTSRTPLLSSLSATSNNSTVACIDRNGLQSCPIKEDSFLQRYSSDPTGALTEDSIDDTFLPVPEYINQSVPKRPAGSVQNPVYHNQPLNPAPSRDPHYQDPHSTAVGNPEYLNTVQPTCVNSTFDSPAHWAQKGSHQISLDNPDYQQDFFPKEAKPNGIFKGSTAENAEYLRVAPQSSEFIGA
EGFR del19/C797S, sequence (P00533 with tags, fused parts or gaps DEL746-750/C797S): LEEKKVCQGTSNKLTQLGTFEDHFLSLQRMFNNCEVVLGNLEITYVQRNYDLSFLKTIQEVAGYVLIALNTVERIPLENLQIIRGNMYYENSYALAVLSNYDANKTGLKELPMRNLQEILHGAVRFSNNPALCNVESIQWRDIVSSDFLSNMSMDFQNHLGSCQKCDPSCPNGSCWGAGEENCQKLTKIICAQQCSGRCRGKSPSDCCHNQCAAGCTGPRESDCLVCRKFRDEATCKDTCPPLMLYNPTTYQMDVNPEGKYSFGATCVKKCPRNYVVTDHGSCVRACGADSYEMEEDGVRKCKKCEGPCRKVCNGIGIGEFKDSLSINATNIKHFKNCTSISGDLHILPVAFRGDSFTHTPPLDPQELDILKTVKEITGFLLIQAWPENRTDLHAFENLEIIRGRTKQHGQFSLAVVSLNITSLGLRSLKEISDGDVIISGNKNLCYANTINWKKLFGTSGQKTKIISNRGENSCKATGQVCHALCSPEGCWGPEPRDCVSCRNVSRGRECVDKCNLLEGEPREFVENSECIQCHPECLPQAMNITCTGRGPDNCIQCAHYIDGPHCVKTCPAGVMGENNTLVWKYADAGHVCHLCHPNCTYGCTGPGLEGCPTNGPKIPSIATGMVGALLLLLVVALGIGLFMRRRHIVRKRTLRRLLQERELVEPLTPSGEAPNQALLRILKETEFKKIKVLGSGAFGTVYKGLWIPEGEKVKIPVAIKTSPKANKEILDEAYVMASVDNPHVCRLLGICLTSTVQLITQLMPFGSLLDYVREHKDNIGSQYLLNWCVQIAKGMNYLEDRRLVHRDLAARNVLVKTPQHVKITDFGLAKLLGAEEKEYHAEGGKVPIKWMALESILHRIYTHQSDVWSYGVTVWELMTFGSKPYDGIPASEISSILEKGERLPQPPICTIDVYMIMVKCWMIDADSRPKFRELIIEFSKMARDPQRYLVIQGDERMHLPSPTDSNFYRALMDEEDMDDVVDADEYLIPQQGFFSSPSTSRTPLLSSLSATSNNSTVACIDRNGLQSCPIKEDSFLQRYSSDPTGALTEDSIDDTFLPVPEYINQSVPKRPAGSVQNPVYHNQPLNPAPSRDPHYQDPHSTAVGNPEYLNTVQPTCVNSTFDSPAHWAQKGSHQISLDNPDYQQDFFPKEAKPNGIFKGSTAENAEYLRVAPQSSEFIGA
EGFR del19/T790M/C797S, sequence (P00533 with tags, fused parts or gaps DEL746-750/T790M/C797S): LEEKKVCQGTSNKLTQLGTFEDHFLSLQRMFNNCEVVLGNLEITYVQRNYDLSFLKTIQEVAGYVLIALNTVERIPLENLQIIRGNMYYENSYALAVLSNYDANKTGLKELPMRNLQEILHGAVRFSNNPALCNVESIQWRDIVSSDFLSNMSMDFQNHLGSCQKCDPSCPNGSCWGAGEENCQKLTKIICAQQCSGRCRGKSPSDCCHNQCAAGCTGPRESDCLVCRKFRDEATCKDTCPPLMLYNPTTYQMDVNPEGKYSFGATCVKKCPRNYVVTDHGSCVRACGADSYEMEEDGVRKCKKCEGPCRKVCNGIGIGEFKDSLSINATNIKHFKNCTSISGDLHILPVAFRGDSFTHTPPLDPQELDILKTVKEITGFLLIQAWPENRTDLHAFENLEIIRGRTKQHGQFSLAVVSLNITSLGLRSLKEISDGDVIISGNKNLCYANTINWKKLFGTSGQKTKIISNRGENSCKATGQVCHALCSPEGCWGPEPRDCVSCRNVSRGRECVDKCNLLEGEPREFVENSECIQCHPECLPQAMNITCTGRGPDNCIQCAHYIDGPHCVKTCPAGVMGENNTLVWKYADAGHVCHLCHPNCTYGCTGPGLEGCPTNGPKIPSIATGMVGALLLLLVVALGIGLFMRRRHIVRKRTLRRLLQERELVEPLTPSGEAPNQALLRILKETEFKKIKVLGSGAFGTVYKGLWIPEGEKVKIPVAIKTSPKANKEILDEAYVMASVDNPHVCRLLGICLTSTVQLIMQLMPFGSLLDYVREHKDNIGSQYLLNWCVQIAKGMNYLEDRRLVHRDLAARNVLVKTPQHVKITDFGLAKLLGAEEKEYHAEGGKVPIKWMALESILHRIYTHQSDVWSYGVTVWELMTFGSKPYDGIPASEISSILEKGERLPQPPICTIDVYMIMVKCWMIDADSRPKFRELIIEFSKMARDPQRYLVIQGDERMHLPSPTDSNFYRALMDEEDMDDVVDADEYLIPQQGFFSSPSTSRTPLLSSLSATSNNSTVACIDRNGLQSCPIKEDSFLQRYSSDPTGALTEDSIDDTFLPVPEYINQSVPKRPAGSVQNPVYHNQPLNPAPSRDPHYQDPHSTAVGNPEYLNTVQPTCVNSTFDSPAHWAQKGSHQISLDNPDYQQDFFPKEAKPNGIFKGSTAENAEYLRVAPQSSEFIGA
EGFR wildtype (WT), sequence (P00533 25-1210): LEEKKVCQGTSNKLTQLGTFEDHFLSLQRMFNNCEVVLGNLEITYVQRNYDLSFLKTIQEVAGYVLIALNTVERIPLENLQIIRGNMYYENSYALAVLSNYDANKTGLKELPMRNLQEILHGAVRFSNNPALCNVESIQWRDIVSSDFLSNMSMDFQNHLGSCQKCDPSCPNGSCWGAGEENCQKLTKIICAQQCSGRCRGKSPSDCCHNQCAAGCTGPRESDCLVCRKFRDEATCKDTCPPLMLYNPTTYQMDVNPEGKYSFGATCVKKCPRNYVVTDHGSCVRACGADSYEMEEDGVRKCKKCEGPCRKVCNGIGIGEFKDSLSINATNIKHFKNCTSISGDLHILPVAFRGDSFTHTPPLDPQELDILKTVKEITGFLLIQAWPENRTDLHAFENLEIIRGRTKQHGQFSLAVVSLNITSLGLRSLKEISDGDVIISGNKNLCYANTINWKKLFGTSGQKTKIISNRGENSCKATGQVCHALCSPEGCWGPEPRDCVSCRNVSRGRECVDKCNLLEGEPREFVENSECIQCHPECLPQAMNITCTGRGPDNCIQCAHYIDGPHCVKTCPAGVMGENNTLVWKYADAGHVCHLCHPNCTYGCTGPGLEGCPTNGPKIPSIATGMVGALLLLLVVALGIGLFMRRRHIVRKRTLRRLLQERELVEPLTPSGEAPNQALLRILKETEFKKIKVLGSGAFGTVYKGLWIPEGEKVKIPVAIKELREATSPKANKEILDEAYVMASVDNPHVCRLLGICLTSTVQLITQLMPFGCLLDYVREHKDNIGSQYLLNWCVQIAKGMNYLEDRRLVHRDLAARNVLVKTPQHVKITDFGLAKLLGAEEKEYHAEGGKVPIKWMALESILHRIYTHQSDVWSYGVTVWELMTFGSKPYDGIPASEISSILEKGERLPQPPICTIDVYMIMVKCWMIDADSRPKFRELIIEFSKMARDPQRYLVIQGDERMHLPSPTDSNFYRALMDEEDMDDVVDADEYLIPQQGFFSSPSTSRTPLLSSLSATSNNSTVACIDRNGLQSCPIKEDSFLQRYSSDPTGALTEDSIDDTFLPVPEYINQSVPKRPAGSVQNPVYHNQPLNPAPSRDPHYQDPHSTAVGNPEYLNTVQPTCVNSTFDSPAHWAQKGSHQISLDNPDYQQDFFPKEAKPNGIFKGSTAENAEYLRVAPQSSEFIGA

| SMILES | IC50 (EGFR del19/T790M/C797S; [1]) | IC50 (EGFR L858R/T790M/C797S; [2]) | IC50 (EGFR del19/C797S; [3]) | IC50 (EGFR L858R/C797S; [4]) | IC50 (EGFR wildtype (WT); [5]) | IC50 (EGFR del19/T790M/C797S; [6]) | IC50 (EGFR L858R/T790M/C797S; [7]) | IC50 (EGFR del19/C797S; [8]) | IC50 (EGFR L858R/C797S; [9]) | IC50 (EGFR wildtype (WT); [10]) |
| --- | --- | --- | --- | --- | --- | --- | --- | --- | --- | --- |
| O=C(c1cnc(Nc2ccnc(-c3cnn(S(=O)(=O)C4CC4)c3)n2)cc1NC[C@H]1CC[C@H](Cn2ccnc2)CC1)C1CC1 [Example 43, (4-((((1r,4r)-4-((1H-Imidazol-1-yl)methyl)cyclohexyl)methyl)amino)-6-((2-(1-(cyclopropylsulfonyl)-1H-pyrazol-4-yl)pyrimidin-4-yl)amino)pyridin-3-yl)(cyclopropyl)methanone] | 1.3 nM | 0.5 nM | 10.5 nM | 24 nM | 64.1 nM |  |  |  |  |  |
| O=C(c1cnc(Nc2ccnc(-c3cnn(S(=O)(=O)C4CC4)c3)n2)cc1NC1CCC(NCCO)CC1)C1CC1 (stereo not drawn) [Example 52, Cyclopropyl(6-((2-(1-(cyclopropylsulfonyl)-1H-pyrazol-4-yl)pyrimidin-4-yl)amino)-4-((4-((2-hydroxyethyl)amino)cyclohexyl)amino)pyridin-3-yl)methanone] |  |  |  |  |  | 1.1 nM | 1.8 nM | 26 nM | 15.2 nM | > 10000 nM |
| O=C(c1cnc(Nc2ccnc(-c3cnn(S(=O)(=O)C4CC4)c3)n2)cc1NC1CCC(NCCN2CC(F)C2)CC1)C1CC1 (stereo not drawn) [Example 55, Cyclopropyl(6-((2-(1-(cyclopropylsulfonyl)-1H-pyrazol-4-yl)pyrimidin-4-yl)amino)-4-((4-((2-(3-fluoroazetidin-1-yl)ethyl)amino)cyclohexyl)amino)pyridin-3-yl)methanone] |  |  |  |  |  | 1 nM | 1.9 nM | 35.7 nM | 85 nM | > 10000 nM |
| O=C(c1cnc(Nc2ccnc(-c3cnn(S(=O)(=O)C4CC4)c3)n2)cc1NC1CCC(NCCN2CCCCC2)CC1)C1CC1 (stereo not drawn) [Example 56, Cyclopropyl(6-((2-(1-(cyclopropylsulfonyl)-1H-pyrazol-4-yl)pyrimidin-4-yl)amino)-4-((4-((2-(piperidin-1-yl)ethyl)amino)cyclohexyl)amino)pyridin-3-yl)methanone] |  |  |  |  |  | 1 nM | 1.2 nM | 7.6 nM | 12.2 nM | 6300 nM |
| CN(C)C1CCN(CCNC2CCC(Nc3cc(Nc4ccnc(-c5cnn(S(=O)(=O)C6CC6)c5)n4)ncc3C(=O)C3CC3)CC2)CC1 (stereo not drawn) [Example 57, Cyclopropyl(6-((2-(1-(cyclopropylsulfonyl)-1H-pyrazol-4-yl)pyrimidin-4-yl)amino)-4-((4-((2-(4-(dimethylamino)piperidin-1-yl)ethyl)amino)cyclohexyl)amino)pyridin-3-yl)methanone] |  |  |  |  |  | 0.6 nM | 1 nM | 18 nM | 10.7 nM | > 10000 nM |
| CN(C)C[C@H]1CC[C@H](CNc2cc(Nc3ccnc(-c4cn[nH]c4)n3)ncc2C(=O)C2CC2)CC1 [Example 59, (6-((2-(1H-Pyrazol-4-yl)pyrimidin-4-yl)amino)-4-((((1r,4r)-4-((dimethylamino)methyl)cyclohexyl)methyl)amino)pyridin-3-yl)(cyclopropyl)methanone] | 1.2 nM | 5.7 nM | 207 nM | 67.9 nM | 136 nM |  |  |  |  |  |
| CC(=O)NC[C@H]1CC[C@H](CNc2cc(Nc3ccnc(-c4cnn(S(=O)(=O)C5CC5)c4)n3)ncc2C(=O)C2CC2)CC1 [Example 68, N-(((1r,4r)-4-(((5-(Cyclopropanecarbonyl)-2-((2-(1-(cyclopropylsulfonyl)-1H-pyrazol-4-yl)pyrimidin-4-yl)amino)pyridin-4-yl)amino)methyl)cyclohexyl)methyl)acetamide] | 1 nM | 0.5 nM | 1 nM | 11.8 nM | 14.9 nM |  |  |  |  |  |

The next lines start with the values.

| IC50 (EGFR del19/T790M/C797S; [1]) | IC50 (EGFR L858R/T790M/C797S; [2]) | IC50 (EGFR del19/C797S; [3]) | IC50 (EGFR L858R/C797S; [4]) | IC50 (EGFR wildtype (WT); [5]) | IC50 (EGFR del19/T790M/C797S; [6]) | IC50 (EGFR L858R/T790M/C797S; [7]) | IC50 (EGFR del19/C797S; [8]) | IC50 (EGFR L858R/C797S; [9]) | IC50 (EGFR wildtype (WT); [10]) | SMILES |
| --- | --- | --- | --- | --- | --- | --- | --- | --- | --- | --- |
| 0.6 nM | 7.3 nM | 290 nM | 471 nM | 1410 nM |  |  |  |  |  | CC(=O)c1cnc(Nc2ccnc(-c3cnn(S(=O)(=O)C4CC4)c3)n2)cc1NC(C)(C)C(C)O (stereo not drawn) [Example 46, 1-(6-((2-(1-(Cyclopropylsulfonyl)-1H-pyrazol-4-yl)pyrimidin-4-yl)amino)-4-((3-hydroxy-2-methylbutan-2-yl)amino)pyridin-3-yl)ethan-1-one] |
| 0.1 nM | 0.6 nM | 10.5 nM | 51.3 nM | 145 nM |  |  |  |  |  | CC(=O)c1cnc(Nc2ccnc(-c3cnn(S(=O)(=O)C4CC4)c3)n2)cc1NC1CCC(CO)C1 (stereo not drawn) [Example 47, 1-(6-((2-(1-Cyclopropylsulfonylpyrazol-4-yl)pyrimidin-4-yl)amino)-4-((3-(hydroxymethyl)cyclopentyl)amino)-3-pyridyl)ethanone] |
| 0.8 nM | 0.5 nM | 15.7 nM | 26.2 nM | 553 nM | 1 nM | 2.4 nM | 4.4 nM | 110 nM | > 10000 nM | C[C@]1(O)CC[C@@H](Nc2cc(Nc3ccnc(-c4cnn(S(=O)(=O)C5CC5)c4)n3)ncc2C(=O)C(F)F)CC1 [Example 48, 1-(6-((2-(1-(Cyclopropylsulfonyl)-1H-pyrazol-4-yl)pyrimidin-4-yl)amino)-4-(((1s,4s)-4-hydroxy-4-methylcyclohexyl)amino)pyridin-3-yl)-2,2-difluoroethan-1-one] |
| 0.4 nM | 0.2 nM | 2.6 nM | 4 nM | 181 nM | 0.4 nM | 0.7 nM | 1.2 nM | 21.1 nM | > 10000 nM | O=C(c1cnc(Nc2ccnc(-c3cnn(S(=O)(=O)C4CC4)c3)n2)cc1N[C@H]1CC[C@@H](CO)CC1)C(F)F [Example 49, 1-(6-((2-(1-(Cyclopropylsulfonyl)-1H-pyrazol-4-yl)pyrimidin-4-yl)amino)-4-(((1s,4s)-4-(hydroxymethyl)cyclohexyl)amino)pyridin-3-yl)-2,2-difluoroethan-1-one] |
| 0.1 nM | 0.1 nM | 0.4 nM | 2.4 nM | 3.6 nM |  |  |  |  |  | CN(C)C[C@H]1CC[C@H](CNc2cc(Nc3ccnc(-c4cnn(S(=O)(=O)C5CC5)c4)n3)ncc2C(=O)C2CC2)CC1 [Example 58, Cyclopropyl(6-((2-(1-(cyclopropylsulfonyl)-1H-pyrazol-4-yl)pyrimidin-4-yl)amino)-4-((((1r,4r)-4-((dimethylamino)methyl)cyclohexyl)methyl)amino)pyridin-3-yl)methanone] |
| 0.1 nM | 0.4 nM | 11.1 nM | 101 nM | 148 nM |  |  |  |  |  | CN(C)C[C@H]1CC[C@H](COc2cc(Nc3ccnc(-c4cnn(S(=O)(=O)C5CC5)c4)n3)ncc2C(=O)C2CC2)CC1 [Example 66, Cyclopropyl(6-((2-(1-(cyclopropylsulfonyl)-1H-pyrazol-4-yl)pyrimidin-4-yl)amino)-4-(((1r,4r)-4-((dimethylamino)methyl)cyclohexyl)methoxy)pyridin-3-yl)methanone] |
| 0.2 nM | 0.2 nM | 0.7 nM | 4.1 nM | 9.3 nM |  |  |  |  |  | NC[C@H]1CC[C@H](CNc2cc(Nc3ccnc(-c4cnn(S(=O)(=O)C5CC5)c4)n3)ncc2C(=O)C2CC2)CC1 [Example 67, (4-((((1r,4r)-4-(Aminomethyl)cyclohexyl)methyl)amino)-6-((2-(1-(cyclopropylsulfonyl)-1H-pyrazol-4-yl)pyrimidin-4-yl)amino)pyridin-3-yl)(cyclopropyl)methanone] |
| 0.1 nM | 0.1 nM | 0.8 nM | 9.2 nM | 7.5 nM |  |  |  |  |  | CC(C)NC[C@H]1CC[C@H](CNc2cc(Nc3ccnc(-c4cnn(S(=O)(=O)C5CC5)c4)n3)ncc2C(=O)C2CC2)CC1 [Example 69, Cyclopropyl(6-((2-(1-(cyclopropylsulfonyl)-1H-pyrazol-4-yl)pyrimidin-4-yl)amino)-4-((((1r,4r)-4-((isopropylamino)methyl)cyclohexyl)methyl)amino)pyridin-3-yl)methanone] |
| 0.3 nM | 0.4 nM | 2.7 nM | 14.4 nM | 24.2 nM |  |  |  |  |  | O=C(c1cnc(Nc2ccnc(-c3cnn(S(=O)(=O)C4CC4)c3)n2)cc1NC[C@H]1CC[C@H](CNC2CCCC2)CC1)C1CC1 [Example 70, (4-((((1r,4r)-4-((Cyclopentylamino)methyl)cyclohexyl)methyl)amino)-6-((2-(1-(cyclopropylsulfonyl)-1H-pyrazol-4-yl)pyrimidin-4-yl)amino)pyridin-3-yl)(cyclopropyl)methanone] |
